Results on 12 substances are retold here after US20120083522A1, “MODULATION OF INFLAMMATORY RESPONSES BY FACTOR XI” (Isis Pharmaceuitcals, inc., priority 2009, published 2012).

In the oligonucleotide strings, read from the 5' end, every base follows the letter of its sugar. An asterisk marks phosphorothioate; unmarked linkages are phosphodiester. Other units and linkages are bracketed, terminal groups are in braces. A string of capitals states the bases alone. e = 2'-O-(2-methoxyethyl) (MOE); [5mC] = 5-methylcytosine; d = 2'-deoxy (DNA)

In one data set the test system is mouse Factor XI mRNA. Description: Cross-reactive antisense inhibition in primary mouse hepatocytes, 100 nM (Example 9). It counts as cell-based. As to conditions: approx. 24 h, percent inhibition relative to untreated control cells. The protocol:
Antisense oligonucleotides targeted to a murine Factor XI nucleic acid were tested for their effects on Factor XI mRNA in vitro. Cultured primary mouse hepatocytes at a density of 10,000 cells per well were treated with 100 nM antisense oligonucleotide. After a treatment period of approximately 24 hours, RNA was isolated from the cells and mouse Factor XI mRNA levels were measured by quantitative real-time PCR. Factor XI mRNA levels were adjusted according to total RNA content, as measured by RIBOGREEN®. Results are presented as percent inhibition of Factor XI, relative to untreated control cells.
The chimeric antisense oligonucleotides in Tables 16 were designed as 5-10-5 MOE gapmers. The gapmers are 20 nucleotides in length, wherein the central gap segment is comprised of 10 2′-deoxynucleotides and is flanked on both sides (in the 5′ and 3′ directions) by wings comprising 5 nucleotides each. Each nucleotide in the 5′ wing segment and each nucleotide in the 3′ wing segment has a 2′-MOE modification. The internucleoside linkages throughout each gapmer are phosphorothioate (P═S) linkages. All cytidine residues throughout each gapmer are 5-methylcytidines. “Mouse target start site” indicates the 5′-most nucleotide to which the gapmer is targeted. “Mouse target stop site” indicates the 3′-most nucleotide to which the gapmer is targeted. All the mouse oligonucleotides listed show cross-reactivity between the mouse Factor XI mRNA (GENBANK Accession No. NM_028066.1), incorporated herein as SEQ ID NO: 6 and the human Factor XI mRNA (GENBANK Accession No. NM_000128.3), incorporated herein as SEQ ID NO: 1. “Human Target Start Site” indicates the 5′-most nucleotide in the human mRNA (GENBANK Accession No. NM_000128.3) to which the antisense oligonucleotide is targeted. “Human Target Stop Site” indicates the 3′-most nucleotide in the human mRNA (GENBANK Accession No. NM_000128.3) to which the antisense oligonucleotide is targeted. “Number of mismatches” indicates the mismatches between the mouse oligonucleotide and the human mRNA sequence.

The nature of data set [1]: Tolerability in Sprague-Dawley rats: hematology assays (Example 23). It counts as in vivo. Details: RBC / WBC / Neutrophil / Lymphocyte / Platelets: unit not given here. As to conditions: blood.
Data set [2] can be described thus: Tolerability in CD1 mice: liver function (Example 21). It counts as in vivo. Details: Albumin: unit not given here. Conditions: plasma, 50 mg/kg s.c. twice per week for 6 weeks.
Data set [3] can be described thus: Tolerability in Sprague-Dawley rats: body and organ weights (Example 23). The data set is classed as in vivo. Conditions: 50 mg/kg s.c. twice per week for 6 weeks; for Body weight: increase over PBS control weight before start of treatment; for Kidney weight / Liver weight / Spleen weight: percentage of the body weight.
Data set [4] in a line: Tolerability in CD1 mice: body and organ weights (Example 21). The data set is classed as in vivo. As to conditions: 50 mg/kg s.c. twice per week for 6 weeks; for Body weight: increase over PBS control weight before start of treatment; for Kidney weight / Liver weight / Spleen weight: percentage of the body weight.
Procedure: Body weight was measured at the onset of the study and subsequently twice per week. The body weights of the mice are presented in Table 87 and are expressed increase in grams over the PBS control weight taken before the start of treatment. Liver, spleen, and kidney weights were measured at the end of the study, and are also presented in Table 87 as percentage of the body weight.
A short description of data set [5]: Tolerability in Sprague-Dawley rats: kidney function (Example 23). It counts as in vivo. Conditions: for BUN: plasma; for Total urine protein / Urine protein/creatinine ratio: total urine samples.
The nature of data set [6]: Tolerability in Sprague-Dawley rats: liver function (Example 23). It counts as in vivo. Details: Albumin: unit not given here. Conditions: plasma, 50 mg/kg s.c. twice per week for 6 weeks.
A short description of data set [7]: Tolerability in CD1 mice: kidney function (Example 21). The data set is classed as in vivo. Conditions: plasma, 50 mg/kg s.c. twice per week for 6 weeks.
Data set [8] in a line: Tolerability in CD1 mice: hematology assays (Example 21). The data set is classed as in vivo. Conditions: 50 mg/kg s.c. twice per week for 6 weeks.

In the case of “404090 (antisense eT*eG*eA*eT*e[5mC]*dA*dT*dG*dA*dA*dT*dT*dA*dT*d[5mC]*eA*eT*eT*eT*e[5mC]) [compound 404090]”, in the data set with mouse Factor XI mRNA, the “Inhibition of mouse Factor XI mRNA levels (column headed SEQ ID No.)” value (“Inhibition … (column headed SEQ ID No.)” for short) stood at 42.
Turning to “GGACGGCATTGGTGCACAGT (antisense; all C 5-methyl, all phosphorothioate, sugars by position not given here; MOE gapmer, 5-10-5) [ISIS 413482, 5-10-5 MOE gapmer]”, in data set [1], the HCT worked out at 40%, the Hemoglobin was 13.2 g/dL, the Lymphocyte is listed as 11430 and the Neutrophil turned out to be 1125. In data set [1], this substance registered a Platelets of 641, an RBC of 7.1 and a WBC of 13. Further, in data set [2], the ALT turned out to be 54 IU/L, the AST was found to be 77 IU/L, the Albumin amounted to 3.0 and the Bilirubin was found to be 0.24 mg/dL. This substance also gave a Cholesterol in [2] of 138 mg/dL. Further, in [3], the Body weight worked out at 158 g, the Kidney weight is reported as 1.0%, the Liver weight is 5% and the Spleen weight stood at 0.6%. In [4], this substance yielded a Body weight of 11 g, a Kidney weight of 1.6%, a Liver weight of 6% and a Spleen weight of 0.5%. Moreover, in data set [5], the creatinine is reported as 34 mg/dL, the BUN stood at 23 mg/dL, the Total urine protein was 157 mg/dL and the Urine protein/creatinine ratio stood at 4.8. In [6], this substance registered an ALT of 59 IU/L, an AST of 157 IU/L, an Albumin of 4 and a Bilirubin of 0.14 mg/dL. This substance also yielded a BUN in data set [7] of 27 mg/dL. In addition, in data set [8], the HCT was 50%, the Hemoglobin came out at 15 g/dL, the Lymphocyte is 5584 cells/μL and the Monocytes stood at 275 cells/μL. In data set [8], the Neutrophil was 1958 cells/μL, the Platelets is 818 10^3/μL, the RBC is reported as 10 10^6/μL and the WBC is 8 10^3/μL.
For the substance “404055 (antisense eT*eG*eT*eT*eA*dT*dA*dG*dT*dT*d[5mC]*dA*dT*dG*d[5mC]*e[5mC]*e[5mC]*eT*eT*e[5mC]) [compound 404055]”, in the data set with mouse Factor XI mRNA, the “Inhibition … (column headed SEQ ID No.)” value worked out at 27.
On the same count and under the same terms, the same measure for “404054 (antisense eT*eA*eG*eT*eT*d[5mC]*dA*dT*dG*d[5mC]*d[5mC]*d[5mC]*dT*dT*d[5mC]*eA*eT*eG*eT*e[5mC]) [compound 404054]”: 45.
On to “ACAGTTTCTGGCAGGCCTCG (antisense; all C 5-methyl, all phosphorothioate, sugars by position not given here; MOE gapmer, 5-10-5) [ISIS 412223, 5-10-5 MOE gapmer]”, for which, in data set [1], the HCT worked out at 41%, the Hemoglobin was 13.1 g/dL, the Lymphocyte was 16990 and the Neutrophil came out at 1826. Besides, in [1], the Platelets turned out to be 567, the RBC turned out to be 7.2 and the WBC is recorded as 20. Also, in data set [2], the ALT is on record as 60 IU/L, the AST was 125 IU/L, the Albumin came to 3.0 and the Bilirubin came to 0.20 mg/dL. Moreover, in data set [2], the Cholesterol was 117 mg/dL. Also, in data set [3], the Body weight was found to be 126 g, the Kidney weight is 1.0%, the Liver weight worked out at 5% and the Spleen weight is listed as 0.5%. In data set [4], this substance registered a Body weight of 12 g, a Kidney weight of 1.5%, a Liver weight of 6% and a Spleen weight of 0.4%. Further, in data set [5], the creatinine is 46 mg/dL, the BUN is listed as 24 mg/dL, the Total urine protein was 224 mg/dL and the Urine protein/creatinine ratio is given as 4.6. Moreover, in data set [6], the ALT is recorded as 85 IU/L, the AST was found to be 180 IU/L, the Albumin came to 5 and the Bilirubin is listed as 0.14 mg/dL. The same substance returned a BUN in [7] of 28 mg/dL. For the same substance, in data set [8], the HCT is 48%, the Hemoglobin turned out to be 15 g/dL, the Lymphocyte turned out to be 4599 cells/μL and the Monocytes was 200 cells/μL. Also, in data set [8], the Neutrophil is listed as 1756 cells/μL, the Platelets is reported as 862 10^3/μL, the RBC was 9 10^6/μL and the WBC is recorded as 7 10^3/μL.
As to “404083 (antisense eT*eG*eT*eG*e[5mC]*dA*dG*dA*dG*dT*d[5mC]*dA*d[5mC]*d[5mC]*dT*eG*e[5mC]*e[5mC]*eA*eT) [compound 404083]”, in the data set on mouse Factor XI mRNA, the “Inhibition … (column headed SEQ ID No.)” value was 47.
In data set [1], “GCATTGGTGCACAGTTTCTG (antisense; all C 5-methyl, all phosphorothioate, sugars by position not given here; MOE gapmer, 5-10-5) [ISIS 412224, 5-10-5 MOE gapmer]” had an HCT of 42%, a Hemoglobin of 13.4 g/dL, a Lymphocyte of 16807 and a Neutrophil of 1865. In [1], this substance came in with a Platelets of 685, an RBC of 7.4 and a WBC of 20. Moreover, in data set [2], the ALT worked out at 214 IU/L, the AST is 183 IU/L, the Albumin was determined as 3.4 and the Bilirubin is 0.19 mg/dL. Moreover, the Cholesterol in data set [2] was determined as 114 mg/dL. In data set [3], the Body weight amounted to 165 g, the Kidney weight is reported as 1.0%, the Liver weight amounted to 5% and the Spleen weight turned out to be 0.5%. In data set [4], this substance gave a Body weight of 10 g, a Kidney weight of 1.6%, a Liver weight of 6% and a Spleen weight of 0.5%. Also, in [5], the creatinine was 44 mg/dL, the BUN amounted to 24 mg/dL, the Total urine protein is reported as 171 mg/dL and the Urine protein/creatinine ratio was 3.8. In data set [6], this substance gave an ALT of 84 IU/L, an AST of 132 IU/L, an Albumin of 4 and a Bilirubin of 0.12 mg/dL. The substance further yielded a BUN in [7] of 29 mg/dL. For the same substance, in data set [8], the HCT was 50%, the Hemoglobin was 15 g/dL, the Lymphocyte turned out to be 6284 cells/μL and the Monocytes is 195 cells/μL. For the same substance, in data set [8], the Neutrophil stood at 2107 cells/μL, the Platelets is listed as 647 10^3/μL, the RBC was 10 10^6/μL and the WBC is recorded as 9 10^3/μL.
Consider “404087 (antisense eT*eT*e[5mC]*eT*eT*dG*dA*dA*d[5mC]*d[5mC]*d[5mC]*dT*dG*dA*dA*eG*eA*eA*eA*eG) [compound 404087]”, for which the “Inhibition … (column headed SEQ ID No.)” value in the data set with mouse Factor XI mRNA is on record as 29.
On the same count and under the same terms, the same measure for “404067 (antisense eG*eG*eG*eA*eA*dA*dA*dT*dG*dT*d[5mC]*d[5mC]*d[5mC]*dT*dG*eA*eT*eA*e[5mC]*eA) [compound 404067]”: 39; for “404050 (antisense eT*eG*e[5mC]*eT*eT*dG*dA*dA*dG*dG*dA*dA*dT*dA*dT*e[5mC]*e[5mC]*eA*eG*eA) [compound 404050]”: 82; for “404089 (antisense eT*eG*eA*eA*eT*dT*dA*dT*d[5mC]*dA*dT*dT*dT*d[5mC]*dT*eT*eG*eA*eA*e[5mC]) [compound 404089]”: 6.
As to “404066 (antisense eA*eA*eT*eG*eT*d[5mC]*d[5mC]*d[5mC]*dT*dG*dA*dT*dA*d[5mC]*dA*eA*eG*e[5mC]*e[5mC]*eA) [compound 404066]”, in the data set on mouse Factor XI mRNA, the “Inhibition … (column headed SEQ ID No.)” value came to 37.
